Results from patent US10117871B2, “3-hydroxypyrimidine-2,4-dione-5-carboxamides as potent inhibitors of HIV” (Regents of the University of Minnesota, priority 2015, dated 2018).
Where two headings read alike, the source gives them in different places.

Experiments:
[1] = system: HIV-1 clone 1556-1 (Y143C); format: cell-based; conditions: EC50(mutant)/EC50(WT)
CEM-SS cells = experiment: Compound cytotoxicity (MTS) in the HIV cytoprotection assay; format: cell-based; conditions: for CC50: Concentration resulting in 50% cell death; for Cell viability %: 10 μM, CEM-SS cells
Description: (§1) The antiviral activity of newly synthesized analogues of chemotype 7 was evaluated against HIV-1IIIB in CEM-SS cells using an assay based on viral cytopathic effect (CPE). In this assay, the reduction of CPE was used to indicate the antiviral activity of a compound.
(§2) Briefly virus and cells were mixed in the presence of test compound and incubated for 6 days. […] Each assay plate contained cell control wells (cells only), virus control wells (cells plus virus), compound toxicity control wells (cells plus compound only), compound colorimetric control wells (compound only) as well as experimental wells (compound plus cells plus virus). […] Each assay included AZT as a positive control.

[2] = system: HIV-1 clone 4736-2 (N155H); format: cell-based; conditions: EC50(mutant)/EC50(WT)
HIV-1IIIB = experiment: HIV-1 cytoprotection (CPE reduction) antiviral assay; format: cell-based; conditions: for inhibition at 10 µM: read-out: CPE reduction %; for antiviral activity, in words: single concentration 10 μM, CPE assay
Description: as §1
Briefly virus and cells were mixed in the presence of test compound and incubated for 6 days. […] Each assay plate contained cell control wells (cells only), virus control wells (cells plus virus), compound toxicity control wells (cells plus compound only), compound colorimetric control wells (compound only) as well as experimental wells (compound plus cells plus virus). Cytoprotection and compound cytotoxicity were assessed by MTS (CellTiter® 96 Reagent, Promega, Madison Wis.) and the EC50 (concentration inhibiting virus replication by 50%), CC50 (concentration resulting in 50% cell death) and a calculated TI (therapeutic index CC50/EC50) were provided. Each assay included AZT as a positive control.

[3] = system: HIV-1 clone 8070-2 (G140S/Q148H); format: cell-based; conditions: EC50(mutant)/EC50(WT)
[4] = system: HIV-1 clone 8070-1 (G140S/Y143H/Q148H); format: cell-based; conditions: EC50(mutant)/EC50(WT)
HIV-1 integrase = molecular target: T1, HIV-1 integrase (Human immunodeficiency virus type 1 group M subtype B, UniProt P04585); experiment: HIV-1 integrase strand transfer (INST) assay; format: biochemical
T1 construct: HIV integrase was expressed and purified as previously reported; made in house; host or cells: Escherichia coli
Description: HIV integrase was expressed and purified as previously reported.^43 Inhibition assays were performed using a modified protocol of a reported method.^43 Briefly, 2.1 μL of compound suspended in DMSO was placed in duplicate into a Black 96 well non-binding plate (coming 3991). Compounds were plated in duplicate to a final concentration of 0.13-100 μM. To each well of the plate 186.9 μL of reaction mixture without DNA substrate was added (10 mM HEPES pH 7.5, 10% glycerol w/v, 10 mM MnCl2, 1 mM DTT, 1 μM integrase). The enzyme was incubated with inhibitor for 10 min at 25° C. after which the reaction was initiated by the addition of 21 μL of 500 nM oligo (5′ biotin […] annealed with […] 3′ Cy5). Reactions were incubated at 37° C. for 30 min and then quenched by the addition of 5.2 μL 500 mM EDTA. Each reaction was moved (200 μL) to a MultiScreen HTS PCR plate (Millipore MSSLBPC10) containing 20 μL streptavidin agarose beads (Life Technologies S951) and incubated with shaking for 30 min. A vacuum manifold was used to remove the reaction mixture and the beads were similarly washed 3 times with wash buffer (0.05% SDS, 1 mM EDTA in PBS). The plates were further washed 3 times with 200 μL 50 mM NaOH to denature DNA not covalently linked to the biotin modification. For each denaturation step the plate was incubated with shaking at 25° C. for 5 min and the NaOH was removed by centrifugation at 1000 g for 1 min. The reaction products were eluted from the beads by the addition of 150 μL formamide. The plate was incubated at 25° C. for 10 min and read directly at 635/675 in a SpectraMax i3 plate reader (Molecular Devices). Expression and purification of the recombinant IN in Escherichia coli were performed as previously reported^39, 44 with addition of 10% glycerol to all buffers. Preparation of oligonucleotide substrates has been described.^45 Integrase reactions were performed in 10 μL with 400 nM of recombinant IN, 20 nM of 5′-end [^32P]-labeled oligonucleotide substrate and inhibitors at various concentrations. Solutions of 10% DMSO without inhibitors were used as controls. Reactions were incubated at 37° C. (60 minutes) in buffer containing 50 mM MOPS, pH 7.2, 7.5 mM MgCl2, and 14.3 mM 2-mercaptoethanol. Reactions were stopped by addition of 10 μL of loading dye (10 mM EDTA, 98% deionized formamide, 0.025% xylene cyanol and 0.025% bromophenol blue). Reactions were then subjected to electrophoresis in 20% polyacrylamide-7 M urea gels. Gels were dried and reaction products were visualized and quantitated with a Typhoon 8600 (GE Healthcare, Little Chalfont, Buckinghamshire, UK). Densitometric analyses were performed using ImageQuant from Molecular Dynamics Inc. The concentrations at which enzyme activity was reduced by 50% (IC50) were determined using “Prism” software (GraphPad Software, San Diego, Calif.) for nonlinear regression to fit dose-response data to logistic curve models.

[5] = Compound cytotoxicity (MTS) in the HIV cytoprotection assay; format: cell-based; conditions: human
Description: as §1, §2

[6] = Aqueous stability in DPBS; format: physicochemical; conditions: DPBS (37° C.) over a 24 h period
Description: To assess drug-like properties of chemotype 7, selected analogues were tested in various in vitro ADME studies (Table 5). Aqueous stability and solubility were evaluated in Dulbecco's Phosphate-Buffered Saline (DPBS). […] Assessment of plasma and microsomal stability as well as plasma protein binding was done in two species, human and mouse. […] Microsomal stability of the compounds were evaluated in liver microsomes using either NADPH (phase I) or UDPGA (phase II) as cofactor.

[7] = Human immunodeficiency virus 1, CEM-SS
[8] = Human immunodeficiency virus 1, summary of Table 2, read-out: EC50
[9] = Human immunodeficiency virus 1, 10 μM, HIV-1IIIB in CEM-SS cells

| Structure (SMILES) | CC50 (CEM-SS cells) [µM] | IC50 (HIV-1 integrase; read-out: INST IC50) [µM] | Cell viability % (CEM-SS cells) [%] | inhibition at 10 µM (HIV-1IIIB; [9]) [%] | EC50 (HIV-1IIIB; Human immunodeficiency virus 1) [µM] | further results |
| --- | --- | --- | --- | --- | --- | --- |
| Cc1cn([C@H]2C[C@H](N=[N+]=[N-])[C@@H](CO)O2)c(=O)[nH]c1=O [AZT, reference compound] | > 10 | – | – | – | – | Fold-resistance [1]: 1.4; Fold-resistance [2]: 0.7; EC50 (HIV-1IIIB; Concentration inhibiting virus replication by 50%, dose response, read-out: EC50): 0.08 µM; Fold-resistance [3]: 0.5; Fold-resistance [4]: 0.9 |
| CCNc1[nH]c(=O)n(O)c(=O)c1C(=O)NCc1cc(F)ccc1F [Compound 7-xvii, N-(2,5-Difluorobenzyl)-1-(hydroxy)-4-(ethylamino)-1,2,3,6-tetrahydro-2,6-dioxopyrimidine-5-carboxamide] | – | 0.068 ± 0.011 | 92 | – | – | IC50 (HIV-1 integrase; read-out: IC50 (ST)): 0.021 to 0.077 µM; CC50 at 6 days [5]: 47 µM; inhibition at 10 µM (HIV-1IIIB; [7]): 100%; EC50 (HIV-1IIIB; Human immunodeficiency virus 1, Concentration inhibiting virus replication by 50%, dose response, read-out: EC50): 0.032 µM; EC50 (HIV-1IIIB; [8]): 0.015 to 0.061 µM |
| CCNc1[nH]c(=O)n(O)c(=O)c1C(=O)NCc1ccc(F)cc1F [Compound 7-xviii, N-(2,4-Difluorobenzyl)-1-(hydroxy)-4-(ethylamino)-1,2,3,6-tetrahydro-2,6-dioxopyrimidine-5-carboxamide] | – | 0.048 ± 0.007 | 87 | 92 | – | – |
| CCNc1[nH]c(=O)n(O)c(=O)c1C(=O)NCc1ccc(F)c(F)c1 [Compound 7-xx, N-(3,4-Difluorobenzyl)-1-(hydroxy)-4-(ethylamino)-1,2,3,6-tetrahydro-2,6-dioxopyrimidine-5-carboxamide] | 21 | 0.077 ± 0.011 | 100 | – | 0.049 | IC50 (HIV-1 integrase; read-out: IC50 (ST)): 0.021 to 0.077 µM; inhibition at 10 µM (HIV-1IIIB; [7]): 100%; EC50 (HIV-1IIIB; [8]): 0.015 to 0.061 µM |
| CCNc1[nH]c(=O)n(O)c(=O)c1C(=O)NCc1cc(F)ccc1Cl [Compound 7-xxi, N-(2-Chloro-5-fluorobenzyl)-1-(hydroxy)-4-(ethylamino)-1,2,3,6-tetrahydro-2,6-dioxopyrimidine-5-carboxamide] | – | 0.095 ± 0.019 | 73 | 62 | – | – |
| CCNc1[nH]c(=O)n(O)c(=O)c1C(=O)NCc1ccc(Cl)c(F)c1 [Compound 7-xxii, N-(4-Chloro-3-fluorobenzyl)-1-(hydroxy)-4-(ethylamino)-1,2,3,6-tetrahydro-2,6-dioxopyrimidine-5-carboxamide] | 19 | 0.12 ± 0.021 | 100 | 100 | 0.19 | remaining in DPBS [6]: 86% |
| CCNc1[nH]c(=O)n(O)c(=O)c1C(=O)NCc1cccc(Cl)c1F [Compound 7-xxiii, N-(3-Chloro-2-fluorobenzyl)-1-(hydroxy)-4-(ethylamino)-1,2,3,6-tetrahydro-2,6-dioxopyrimidine-5-carboxamide] | 18 | 0.021 ± 0.002 | 100 | 100 | 0.015 | Fold-resistance [1]: 0.4; Fold-resistance [2]: 2.4; Fold-resistance [3]: 13; Fold-resistance [4]: 6.3 |
| CCNc1[nH]c(=O)n(O)c(=O)c1C(=O)NCc1ccc(C)c(F)c1 [Compound 7-xxiv, N-(3-Fluoro-4-methylbenzyl)-1-(hydroxy)-4-(ethylamino)-1,2,3,6-tetrahydro-2,6-dioxopyrimidine-5-carboxamide] | 20 | 0.051 ± 0.013 | 100 | 100 | 0.15 | – |
| CCNc1[nH]c(=O)n(O)c(=O)c1C(=O)Nc1ccccc1 [Compound 7-xxv, 1-(Hydroxy)-4-(ethylamino)-1,2,3,6-tetrahydro-2,6-dioxo-N-phenylpyrimidine-5-carboxamide] | – | 35 ± 17 | 27 | 11 | – | antiviral activity, in words (HIV-1IIIB): complete loss of activity |
| CCNc1[nH]c(=O)n(O)c(=O)c1C(=O)NCCc1ccccc1 [Compound 7-xxvi, 1-(Hydroxy)-4-(ethylamino)-1,2,3,6-tetrahydro-2,6-dioxo-N-phenethylpyrimidine-5-carboxamide] | – | 0.1 ± 0.03 | 87 | 99 | – | antiviral activity, in words (HIV-1IIIB): largely retained |
| CCNc1[nH]c(=O)n(O)c(=O)c1C(=O)NCCCl [Compound 7-xxvii, 1-(Hydroxy)-N-(2-chloroethyl)-4-(ethylamino)-1,2,3,6-tetrahydro-2,6-dioxopyrimidine-5-carboxamide] | – | – | 100 | – | – | inhibition of ST in the ST assay, in words (HIV-1 integrase): none; inhibition at 10 µM (HIV-1IIIB; [7]): 5.1%; antiviral activity, in words (HIV-1IIIB): completely abrogated antiviral activity |
